Laboratory results: patent US20230172878A1, “COMPOSITIONS AND METHODS FOR TREATING CYTOKINE STORMS” (priority 2020, published 2023)

Experiments:
mice [1] = conditions: cited from earlier work
rats = conditions: 10× higher doses than the human equivalent dose proposed for clinical trials; cited from earlier work
mice [2] = conditions: 10× higher doses than the human equivalent dose proposed for clinical trials; cited from earlier work
dogs = conditions: 10× higher doses than the human equivalent dose proposed for clinical trials; cited from earlier work
PBMCs [3] = assay: Cytokine production by morpholinofructose-stimulated PBMCs from two donors; type: cell-based, human
Procedure: For FIGS. 2 through 7, cells from two donors were used, each in a separate independent study. Cytokines secreted in the media by the cells were measured at 2, 4, 6, 24 and 48 hours.
In the following examples cells were stimulated known cytokine stimulants, either lipopolysaccharide (“LPS”) or morpholino fructose. […] Varying levels of meglumine, or a salt thereof were then administered to the stimulated cells and the resulting cytokine levels measured.
Peripheral blood mononuclear cells (“PBMC”s) from two donors were used to measure cytokine levels in response to various inputs. For each donor, one group of PBMCs were untreated. One group was allowed to remain in cell culture. A different group was treated with 40 mM meglumine. Another group was treated with morpholinofructose at 40 mM concentration. Three remaining groups were treated with morpholinofructose at 40 mM concentration and meglumine at concentration of 20 mM, 40 mM, and 80 mM. The groups were allowed to incubate for up to 50 hours. Cytokines secreted in the media by the cells were measured at 2, 4, 6, 24 and 48 hours The percentage of cells positive for IL-6 was determined by flow cytometry.
The same protocol was used to measure the addition of meglumine to reduce the levels of TNF-α (FIGS. 3A and 3B), MIP-1α (FIGS. 4A and 4B), MCP-1(FIGS. 5A and 5B), and MCP-1 ((FIGS. 6A and 6B).

PBMCs [4] = assay: LPS-stimulated cytokine-positive PBMCs, flow cytometry; type: cell-based, human; conditions: 4 hours
Procedure: Lipopolysaccharide (LPS) at […] concentration was used as a positive control for cytokine production in PBMCs. Meglumine was added at 40 mM and the cells allowed to incubate for 4 hours before sorting. […] (p<0.05 vs unstimulated and p<0.05 vs LPS). FIG. 8. The same protocol was sued to measure IL-1α production. […] FIG. 9.

THP-1 cells = assay: LPS-induced cytokine secretion by THP-1 cells; type: cell-based, human; conditions: LPS 25 ng/ml, 24 hours
Procedure: THP-1 cells (a human monocytic cell line derived from an acute monocytic leukemia patient) were cultured to 80% confluence. The THP-1 cells were then treated with LPS at 25 ng/ml to induce cytokine secretion. Cells were treated with either various concentration of meglumine. Tissue culture media was harvested at 24 hours and the levels of cytokines were determined.

In the case of COc1cc2nc(N3CCN(C(=O)c4ccco4)CC3)nc(N)c2cc1OC [Prazosin, prazosin], the “catecholamines and cytokine responses” value (mice [1]) is given as “reduces” and the survival (mice [1]; following various hyper-inflammatory stimuli) is given as “markedly increased survival”.

In the case of CNC[C@H](O)[C@@H](O)[C@H](O)[C@H](O)CO.Cl [meglumine HCl], the safety (rats) is listed as “safe”, the safety (mice [2]) is listed as “safe” and the safety (dogs) is listed as “safe”.

In the case of CNC[C@H](O)[C@@H](O)[C@H](O)[C@H](O)CO [meglumine, (2R,3R,4R,5S)-6-(Methylamino)hexane-1,2,3,4,5-pentol], the “IL-6 levels in the PBMCs” value (PBMCs [3]; 40 mM morpholinofructose plus meglumine 20, 40, 80 mM, measured at 2, 4, 6, 24 and 48 hours) is reported as “reduced the IL-6 levels”, the TNF-α production (PBMCs [3]; 40 mM morpholinofructose plus various concentrations of meglumine, FIGS. 3A, 3B) is reported as “decreased” and the “MIP 1α production” value (PBMCs [3]; 40 mM morpholinofructose plus various concentrations of meglumine, FIGS. 4A, 4B) is reported as “decreased”. The “MCP 1 production” value (PBMCs [3]; 40 mM morpholinofructose plus various concentrations of meglumine, FIGS. 5A, 5B) was “decreased”, the IL-10 production (PBMCs [3]; 40 mM morpholinofructose plus various concentrations of meglumine, FIGS. 6A, 6B) was “decreased” and the “LPS-stimulated increase in the percentage of IL-6 positive PBMCs” value (PBMCs [4]; LPS 40 mM, meglumine 40 mM, p<0.05 vs unstimulated and vs LPS, FIG. 8) was “significantly reduced”. For the same molecule, the “percentage of PBMCs expressing IL-1α” value (PBMCs [4]; combination of LPS and meglumine 40 mM, FIG. 9) was “significantly increased”, the “lowest concentration at which cytokine reduction was exhibited” value (THP-1 cells) was 10 mm and the “secretion of IL-8” value (THP-1 cells; meglumine at high concentrations, FIG. 11) was “ability to interfere with the secretion”. For the same molecule, the “secretion of MIP-1α” value (THP-1 cells; meglumine at high concentrations, FIG. 13) was “ability to interfere with the secretion”, the “secretion of MIP-1β” value (THP-1 cells; meglumine at high concentrations, FIG. 14) was “ability to interfere with the secretion” and the “secretion of VEGF” value (THP-1 cells; meglumine at high concentrations, FIG. 15) was “ability to interfere with the secretion”.

With O=C(CN1CCOCC1)[C@@H](O)[C@H](O)[C@H](O)CO [morpholinofructose, reference compound] the “IL-6 production versus control cells” value (PBMCs [3]; human PBMCs incubated with 40 mM morpholinofructose, FIG. 7) was “significantly more IL-6 than control cells”.
